Assay results published in ChEMBL document CHEMBL1201862, “PubChem BioAssay data set” (2004).
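Assay format: 96-well plates, 48-hour exposure. Here, GI50 denotes the concentration required for 50% inhibition of growth.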 Calls of active or inactive are those of the source. Rule as the data show it: active = GI50 up to about 1.1 µM and inactive = higher.

Experiments:
Test in all cases: inhibition of tumour cell growth, NCI panel, 48 h
SNB-19 = test system: SNB-19
NCI-H460 = test system: NCI-H460
RPMI-8226 = test system: RPMI-8226
NCI-H522 = test system: NCI-H522
A549 = test system: A549
M14 = test system: M14
SF-539 = test system: SF-539
SR = test system: SR
TK-10 = test system: TK-10
OVCAR-3 = test system: OVCAR-3
LOX IMVI = test system: LOX IMVI
HCT-15 = test system: HCT-15
MDA-N = test system: MDA-N
HL-60 = test system: HL-60
CAKI-1 = test system: CAKI-1
NCI-H23 = test system: NCI-H23
MOLT-4 = test system: MOLT-4
Hs-578T = test system: Hs-578T
U-251 = test system: U-251
MCF7 = test system: MCF7

SMILES | GI50 (SNB-19) | GI50 (NCI-H460) | GI50 (RPMI-8226) | GI50 (NCI-H522) | GI50 (A549) | GI50 (M14) | GI50 (SF-539) | GI50 (SR) | GI50 (TK-10) | GI50 (OVCAR-3) | GI50 (LOX IMVI) | GI50 (HCT-15) | GI50 (MDA-N) | GI50 (HL-60) | GI50 (CAKI-1) | GI50 (NCI-H23) | GI50 (MOLT-4) | GI50 (Hs-578T) | GI50 (U-251) | GI50 (MCF7)
C=C1C(=O)[C@@]23CC[C@@H]4[C@@]5(C)CCC[C@@]4(OC5=O)[C@@]2(C)CC[C@@H]1C3 | 3.23 µM (inactive) | 1.41 µM (inactive) | 0.508 µM (active) | 0.497 µM (active) | 3.28 µM (inactive) | 2.17 µM (inactive) | 2.12 µM (inactive) | 0.955 µM (active) | 1.11 µM (active) | 1.78 µM (inactive) | 0.422 µM (active) | 0.67 µM | 1.87 µM (inactive) | 0.484 µM (active) | 0.863 µM (active) | 1.94 µM (inactive) | 1.75 µM (inactive) | 1.93 µM (inactive) | 1.97 µM (inactive) | 0.893 µM (active)
C/C(=N\Nc1cc(CN2CCCC2)c(-c2ccc(Cl)cc2)nn1)C(=O)O | > 100 µM (inactive) | > 100 µM (inactive) | > 100 µM (inactive) | > 100 µM (inactive) | > 100 µM (inactive) | > 100 µM (inactive) | > 100 µM (inactive) | > 100 µM (inactive) | > 100 µM (inactive) | 90.2 µM (inactive) | > 100 µM (inactive) | > 100 µM | > 100 µM (inactive) | > 100 µM (inactive) | > 100 µM (inactive) | > 100 µM (inactive) | > 100 µM (inactive) | > 100 µM (inactive) | > 100 µM (inactive) | > 100 µM (inactive)
CC[C@]12C=CCN3CCC4(c5cc(/N=N/c6ccccc6)c(OC)cc5N(C)[C@H]4[C@@](O)(C(=O)OC)[C@@H]1OC(C)=O)[C@@H]32 (stereo partly specified) | 20.5 µM (inactive) | 16 µM (inactive) | 19.2 µM (inactive) | 16.1 µM (inactive) | 17.5 µM (inactive) | 20.6 µM (inactive) | 21 µM (inactive) | 19.4 µM (inactive) | 17.6 µM (inactive) | 12.8 µM (inactive) | 17.3 µM (inactive) | 17.3 µM | 18.4 µM (inactive) | 17.3 µM (inactive) | 24.2 µM (inactive) | 15.3 µM (inactive) | 13.6 µM (inactive) | 17.8 µM (inactive) | 15.9 µM (inactive) | 16.3 µM (inactive)
COC(=O)C1(Cc2ccccc2)Cc2ccccc2C1O (stereo unspecified) | – | > 100 µM (inactive) | > 100 µM (inactive) | 56.8 µM (inactive) | 87.5 µM (inactive) | – | > 100 µM (inactive) | 92.9 µM (inactive) | 95.9 µM (inactive) | > 100 µM (inactive) | > 100 µM (inactive) | > 100 µM | > 100 µM (inactive) | > 100 µM (inactive) | > 100 µM (inactive) | 63 µM (inactive) | 39.4 µM (inactive) | 55.1 µM (inactive) | > 100 µM (inactive) | > 100 µM (inactive)
COc1ccccc1OC(=O)/C=C/c1ccccc1 | > 100 µM (inactive) | 33 µM (inactive) | 5.33 µM (inactive) | > 100 µM (inactive) | > 100 µM (inactive) | > 100 µM (inactive) | > 100 µM (inactive) | > 100 µM (inactive) | 84.1 µM (inactive) | > 100 µM (inactive) | > 100 µM (inactive) | > 100 µM | > 100 µM (inactive) | 64.1 µM (inactive) | > 100 µM (inactive) | > 100 µM (inactive) | 17.4 µM (inactive) | > 100 µM (inactive) | > 100 µM (inactive) | > 100 µM (inactive)
C/C=C/[C@@]1(OC(=O)c2ccccc2)C[C@@H]2CCCC[C@@H]21 | 17.3 µM (inactive) | 18.4 µM (inactive) | 16.6 µM (inactive) | 15.7 µM (inactive) | 18.5 µM (inactive) | 17.9 µM (inactive) | 17.5 µM (inactive) | 18.1 µM (inactive) | 15 µM (inactive) | – | 21.9 µM (inactive) | 19.5 µM | 17.4 µM (inactive) | 14 µM (inactive) | 17.6 µM (inactive) | 16.5 µM (inactive) | 17.9 µM (inactive) | 13.8 µM (inactive) | 16.3 µM (inactive) | 18.9 µM (inactive)
CC1=NN(c2cccc(Cl)c2)C2(SCC(=O)N2c2nc3ccccc3s2)/C1=C\c1ccc(N(C)C)cc1 (stereo unspecified) | – | 20.9 µM (inactive) | 44.2 µM (inactive) | 65.8 µM (inactive) | – | > 100 µM (inactive) | 52.2 µM (inactive) | 58.5 µM (inactive) | 33 µM (inactive) | 48.5 µM (inactive) | > 100 µM (inactive) | 56.1 µM | > 100 µM (inactive) | > 100 µM (inactive) | 85.9 µM (inactive) | 31.8 µM (inactive) | 48.5 µM (inactive) | 21 µM (inactive) | 35.7 µM (inactive) | 38.7 µM (inactive)
N/N=C1\CCCc2c1no[n+]2[O-] | > 100 µM (inactive) | > 100 µM (inactive) | > 100 µM (inactive) | > 100 µM (inactive) | > 100 µM (inactive) | > 100 µM (inactive) | > 100 µM (inactive) | > 100 µM (inactive) | > 100 µM (inactive) | > 100 µM (inactive) | > 100 µM (inactive) | > 100 µM | > 100 µM (inactive) | > 100 µM (inactive) | > 100 µM (inactive) | > 100 µM (inactive) | > 100 µM (inactive) | > 100 µM (inactive) | > 100 µM (inactive) | > 100 µM (inactive)
COc1nc2ncc([C@@H](O)[C@H](O)CO)nc2c(=O)n1C | > 100 µM (inactive) | > 100 µM (inactive) | > 100 µM (inactive) | > 100 µM (inactive) | > 100 µM (inactive) | > 100 µM (inactive) | > 100 µM (inactive) | > 100 µM (inactive) | > 100 µM (inactive) | > 100 µM (inactive) | > 100 µM (inactive) | > 100 µM | > 100 µM (inactive) | > 100 µM (inactive) | > 100 µM (inactive) | – | > 100 µM (inactive) | > 100 µM (inactive) | > 100 µM (inactive) | > 100 µM (inactive)
COc1c(-c2ccc(F)cc2)oc2cc(O)cc(O)c2c1=O | 23.9 µM (inactive) | 21.7 µM (inactive) | 30.4 µM (inactive) | 20.5 µM (inactive) | 31 µM (inactive) | 34.8 µM (inactive) | 19.8 µM (inactive) | 28.2 µM (inactive) | – | 34.1 µM (inactive) | 21.8 µM (inactive) | 18.5 µM | 26.2 µM (inactive) | 30.9 µM (inactive) | 24.3 µM (inactive) | 29.6 µM (inactive) | 24.2 µM (inactive) | 35.2 µM (inactive) | 30.5 µM (inactive) | 33.7 µM (inactive)
CC(C)(C)OC(=O)NNCC(O)COc1ccccc1 (stereo unspecified) | > 100 µM (inactive) | > 100 µM (inactive) | > 100 µM (inactive) | > 100 µM (inactive) | > 100 µM (inactive) | > 100 µM (inactive) | > 100 µM (inactive) | > 100 µM (inactive) | > 100 µM (inactive) | > 100 µM (inactive) | > 100 µM (inactive) | > 100 µM | > 100 µM (inactive) | 0.0318 µM (active) | > 100 µM (inactive) | > 100 µM (inactive) | > 100 µM (inactive) | > 100 µM (inactive) | > 100 µM (inactive) | > 100 µM (inactive)
CCN(CC)CCC(=O)/C=C/c1ccccc1 | 18.1 µM (inactive) | 12.1 µM (inactive) | 1.97 µM (inactive) | 4.51 µM (inactive) | 19 µM (inactive) | 15.7 µM (inactive) | 19.9 µM (inactive) | 3.41 µM (inactive) | 17.7 µM (inactive) | 3.54 µM (inactive) | 2.54 µM (inactive) | 15.6 µM | 13.3 µM (inactive) | 2.55 µM (inactive) | 3.27 µM (inactive) | 18.2 µM (inactive) | 6.3 µM (inactive) | 14 µM (inactive) | 12 µM (inactive) | 2.48 µM (inactive)
CC(C)=CCOc1cc(NC(=S)c2ccsc2C)ccc1Cl | 31.8 µM (inactive) | 12.4 µM (inactive) | 15.7 µM (inactive) | 54.5 µM (inactive) | 46.7 µM (inactive) | – | 55.1 µM (inactive) | 18.7 µM (inactive) | 93.5 µM (inactive) | 14.1 µM (inactive) | 30.7 µM (inactive) | > 100 µM | > 100 µM (inactive) | 44.1 µM (inactive) | > 100 µM (inactive) | 17.1 µM (inactive) | 20.2 µM (inactive) | 12.3 µM (inactive) | 20.7 µM (inactive) | 15.4 µM (inactive)
Nc1nc(N)c2cc(Sc3cccc(C(F)(F)F)c3)ccc2n1 [WR-159412] | 4.81 µM (inactive) | 0.466 µM (active) | 1.93 µM (inactive) | 2.7 µM (inactive) | 0.367 µM (active) | 1.14 µM (inactive) | 3.17 µM (inactive) | 0.843 µM (active) | 10.1 µM (inactive) | 3.87 µM (inactive) | – | 0.499 µM | 0.371 µM (active) | 1.62 µM (inactive) | 1.17 µM (inactive) | 2.99 µM (inactive) | 0.271 µM (active) | 2.66 µM (inactive) | 0.771 µM (active) | 2.86 µM (inactive)
